Measurements: patent US8604029B2, “2-[(2-substituted)-indolizin-3-yl]-2-oxo-acetamide derivatives as antifungal agents” (F2G Ltd British Body Corporate, priority 2006, dated 2013)
In brackets after ≈: the same amount, converted by molar mass.

Columns and labels:
Format in all cases: cell-based
Fusarium solani = test: 24 hr MIC measurement, RPMI medium; settings: Fusarium solani FS2, MIC banded into grades
Procedure: Between 1 and 5 mgs of compound were accurately weighed out into a sterile Eppendorf tube. The compound was dissolved in DMSO to give a solution containing […]. Tubes were stored at −20° C. until required.
On the day of testing thawed solutions were vortex mixed to ensure homogeneity. 30 μL of solution was removed and added to 570 μL of sterile water in a separate sterile Eppendorf. The thoroughly mixed solution was used to prepare a series of doubling dilutions in water, in a deep well plate. Thirteen replicate plates were prepared using a Minitrak by aspirating 20 μL from each well into eleven clear polystyrene 96 well plates.
Spores of Aspergillus spp. […]
This produced MIC plates with a drug range 50-0.05 mg/L and organism inocula of 1-2×10^4 cfu/mL for Aspergillus spp. and other filamentous fungi and 1-2×10^3 cfu/mL for yeasts. […] Growth was assessed by monitoring the optical density at 485 nm for each well. […] MICs are recorded as mg/L. Other growth media can be used for susceptibility testing, and the activity of the described compounds can also be assessed in a medium comprising 1% glucose, 1% ammonium chloride and 0.5% yeast extract (YAG medium). […] Growth was assessed by monitoring the optical density at 485 nm for each well. […]

Aspergillus niger = test: MIC measurement, YAG medium; settings: Aspergillus niger, MIC banded into grades
In short: (§1)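 Spores from 5-day Sabouraud agar cultures were diluted in YAG medium (1% glucose, 1% ammonium chloride, 0.5% yeast extract) to a final inoculum of 1-2×10^4 cfu/mL, with drug at 50-0.05 mg/L. Plates were incubated 24 h at 35° C and read as OD 485 nm. MIC is the lowest concentration giving >70% inhibition versus drug-free control, in mg/L.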

Aspergillus fumigatus = test: MIC measurement, YAG medium; settings: Aspergillus fumigatus; YAG medium; MIC banded into grades; strain AF293; read-out: MIC A. fumigatus
In short: as §1

Aspergillus terreus = test: MIC measurement, YAG medium; settings: Aspergillus terreus, MIC banded into grades, strain not named in head (AT4)
In short: as §1

Aspergillus flavus = test: MIC measurement, YAG medium; settings: Aspergillus flavus, MIC banded into grades, lowest concentration inhibiting growth by >70%
In short: as §1

Aspergillus terreus AT49 = test: MIC measurement, YAG medium; settings: Aspergillus terreus, MIC banded into grades, strain AT49, read-out: MIC A. terreus 49
In short: as §1

[1] = tested on: Aspergillus fumigatus AF210; test: MIC measurement, YAG medium; settings: Aspergillus fumigatus, MIC banded into grades, strain AF210, read-out: MIC A. fumigatus 210
In short: as §1

MIC (Fusarium solani)	MIC (Aspergillus niger)	MIC (Aspergillus fumigatus)	MIC (Aspergillus terreus)	MIC (Aspergillus flavus)	MIC (Aspergillus terreus AT49)	MIC [1]	Structure (SMILES)
< 1 µg/mL	< 1 µg/mL	< 1 µg/mL	< 1 µg/mL	< 1 µg/mL	< 1 µg/mL	< 1 µg/mL	C=C1CCN(c2ccc(NC(=O)C(=O)c3c(-c4ccccc4)cc4ccccn34)cc2)CC1 [Example 3, N-[4-(4-methylene-piperidin-1-yl)-phenyl]-2-oxo-2-(2-phenyl-indolizin-3yl) acetamide]
1 to 10 µg/mL (≈ 1.86 to 18.6 µM)	< 1 µg/mL	< 1 µg/mL	< 1 µg/mL	< 1 µg/mL	< 1 µg/mL	< 1 µg/mL	C[C@@H]1CN(C2CCN(c3ccc(NC(=O)C(=O)c4c(-c5ccccc5)cc5ccccn45)cc3)CC2)C[C@H](C)O1 [Example 24, N-{4-[4-(2,6-Dimethyl-morpholin-4-yl)-piperidin-1-yl]-phenyl}-2-oxo-2-(2-phenyl-indolizin-3-yl)-acetamide]
